According to patent US20170000129A1, “METHOD FOR TREATING MINERAL SLURRIES WITH A BIOCIDE” (priority 2015, published 2017):

Tests used:
[1] = tested on: bacteria from a contaminated kaolin product; test: Kaolin slurry preservation test, challenge: on day 20 samples inoculated with ~10^5 cfu/ml bacteria from a contaminated kaolin product; type: cell-based
Description: (§1) In the comparative testing, dry kaolin was mixed with water to achieve a 65% solid slurry material. This material contained no biocide. The slurry was then split into 200 gram aliquots and dosed with different biocides at different concentration as shown in Tables 1-3. All samples were kept at 50° C. until the end of the testing, which was up to 28 days.
(§2) The protocol for the testing of each sample is as follows: • 1) dosed with a recorded level of biocide; • 2) mixed for 24 hours contact time and plated using standard method agar for bacterial growth; • 3) remixed daily for 1 hour and retested for bacterial growth at Day 3; • 4) remixed daily for 1 hour and retested for bacterial growth at Day 7; • 5) remixed daily for 1 hour and retested for bacterial growth at Day 14; • 6) on day 20, samples were split into two containers: one container was inoculated (or challenged) with ˜10^5 cfu/ml bacteria, the other was left “as treated”, the challenge material was obtained from a contaminated kaolin product and is assumed to be representative of the types of bacteria that are seen in the kaolin industry, and the two sets of samples were prepared for Day 21 testing; • 7) both sets were remixed daily for 1 hour and retested for bacterial growth at Day 21; and • 8) both sets remixed daily for 1 hour and retested for bacterial growth at Day 28.

[2] = tested on: bacterial growth in kaolin slurry; test: Kaolin slurry preservation test: biocide-dosed 65% solids slurry plated on standard method agar, samples as treated; type: cell-based, bacteria
Description: as §1
A number of different and known biocides were used in the study and they include glutaraldehyde (glute), 1,2 benzithiazolin-3-one (BIT), tetrahydro-3-5-methyl-2H-1,3,5-thiadizine-2-thione (thione), isothiazoline (ISO), bronopol (BNPD) or orthophenyl phenate (OPP). For shorthand purposes, the study refers to the tradename of the biocide, which is found in the above listing of the biocides. Metam sodium is designated as SMDC and MDTCMA is used without change
as §2
Different contact times were used to see how quickly the bacterial population was effected by the biocide.

For `CN1CSC(=S)N(C)C1` [24% Thione, tetrahydro-3,5-dimethyl-2H-1,3,5-thiadiazine-2-thione, reference compound], the “Log Red, 21 day Challenge” value ([1]; 500 ppm, Table 2) was 3, the “Log Red, 28 day Challenge” value ([1]; 500 ppm, Table 2) was 4 and the “cfu/mL, 21 day Challenge” value ([1]; 500 ppm, Table 2) was 39,000 cfu/mL. For the same compound, the “cfu/mL, 28 day Challenge” value ([1]; 500 ppm, Table 2) was 3,400 cfu/mL, the “Log Red, 21 day Challenge” value ([1]; 500 ppm, Table 3) was 5 and the “Log Red, 28 day Challenge” value ([1]; 500 ppm, Table 3) was 5. For the same compound, the “cfu/mL, 21 day Challenge” value ([1]; 500 ppm, Table 3) was 100 cfu/mL, the “cfu/mL, 28 day Challenge” value ([1]; 500 ppm, Table 3) was 100 cfu/mL and the “Log Red, 21 day Challenge” value ([1]; 1000 ppm, Table 2) was 5. The “Log Red, 28 day Challenge” value ([1]; 1000 ppm, Table 2) was 4, the “cfu/mL, 21 day Challenge” value ([1]; 1000 ppm, Table 2) was 900 cfu/mL and the “cfu/mL, 28 day Challenge” value ([1]; 1000 ppm, Table 2) was 1,500 cfu/mL. For the same compound, the “Log Red, 21 day Challenge” value ([1]; 1000 ppm, Table 3) was 5, the “Log Red, 28 day Challenge” value ([1]; 1000 ppm, Table 3) was 5 and the “cfu/mL, 21 day Challenge” value ([1]; 1000 ppm, Table 3) was 100 cfu/mL. For the same compound, the “cfu/mL, 28 day Challenge” value ([1]; 1000 ppm, Table 3) was 100 cfu/mL, the “biocide effectiveness after inoculation, overall result of the studies” value ([1]; after inoculation) was “most effective biocides” and the “Log Red, contact time 1 day” value ([2]; 500 ppm, Table 2) was 0. For the same compound, the “Log Red, contact time 3 day” value ([2]; 500 ppm, Table 2) was 3, the “Log Red, contact time 7 day” value ([2]; 500 ppm, Table 2) was 4 and the “Log Red, contact time 14 day” value ([2]; 500 ppm, Table 2) was 4. For the same compound, the “Log Red, contact time 21 day” value ([2]; 500 ppm, Table 2) was 5, the “Log Red, contact time 28 day” value ([2]; 500 ppm, Table 2) was 5 and the “cfu/mL, contact time 1 day” value ([2]; 500 ppm, Table 2) was 13,340,000 cfu/mL. For the same compound, the “cfu/mL, contact time 3 day” value ([2]; 500 ppm, Table 2) was 11,000 cfu/mL, the “cfu/mL, contact time 7 day” value ([2]; 500 ppm, Table 2) was 5,600 cfu/mL and the “cfu/mL, contact time 14 day” value ([2]; 500 ppm, Table 2) was 2,100 cfu/mL. For the same compound, the “cfu/mL, contact time 21 day” value ([2]; 500 ppm, Table 2) was 1,100 cfu/mL, the “cfu/mL, contact time 28 day” value ([2]; 500 ppm, Table 2) was 800 cfu/mL and the “Log Red, contact time 1 day” value ([2]; 500 ppm, Table 3) was 2. The “Log Red, contact time 3 day” value ([2]; 500 ppm, Table 3) was 2, the “Log Red, contact time 7 day” value ([2]; 500 ppm, Table 3) was 2 and the “Log Red, contact time 14 day” value ([2]; 500 ppm, Table 3) was 3. For the same compound, the “Log Red, contact time 21 day” value ([2]; 500 ppm, Table 3) was 2, the “Log Red, contact time 28 day” value ([2]; 500 ppm, Table 3) was 2 and the “cfu/mL, contact time 1 day” value ([2]; 500 ppm, Table 3) was 3,300 cfu/mL. The “cfu/mL, contact time 3 day” value ([2]; 500 ppm, Table 3) was 100 cfu/mL, the “cfu/mL, contact time 7 day” value ([2]; 500 ppm, Table 3) was 100 cfu/mL and the “cfu/mL, contact time 14 day” value ([2]; 500 ppm, Table 3) was 100 cfu/mL. The “cfu/mL, contact time 21 day” value ([2]; 500 ppm, Table 3) was 100 cfu/mL, the “cfu/mL, contact time 28 day” value ([2]; 500 ppm, Table 3) was 100 cfu/mL and the “Log Red, contact time 1 day” value ([2]; 1000 ppm, Table 2) was 1. For the same compound, the “Log Red, contact time 3 day” value ([2]; 1000 ppm, Table 2) was 4, the “Log Red, contact time 7 day” value ([2]; 1000 ppm, Table 2) was 4 and the “Log Red, contact time 14 day” value ([2]; 1000 ppm, Table 2) was 5. For the same compound, the “Log Red, contact time 21 day” value ([2]; 1000 ppm, Table 2) was 5, the “Log Red, contact time 28 day” value ([2]; 1000 ppm, Table 2) was 5 and the “cfu/mL, contact time 1 day” value ([2]; 1000 ppm, Table 2) was 6,670,000 cfu/mL. For the same compound, the “cfu/mL, contact time 3 day” value ([2]; 1000 ppm, Table 2) was 6,800 cfu/mL, the “cfu/mL, contact time 7 day” value ([2]; 1000 ppm, Table 2) was 2,600 cfu/mL and the “cfu/mL, contact time 14 day” value ([2]; 1000 ppm, Table 2) was 1,200 cfu/mL. For the same compound, the “cfu/mL, contact time 21 day” value ([2]; 1000 ppm, Table 2) was 300 cfu/mL, the “cfu/mL, contact time 28 day” value ([2]; 1000 ppm, Table 2) was 200 cfu/mL and the “Log Red, contact time 1 day” value ([2]; 1000 ppm, Table 3) was 3. For the same compound, the “Log Red, contact time 3 day” value ([2]; 1000 ppm, Table 3) was 2, the “Log Red, contact time 7 day” value ([2]; 1000 ppm, Table 3) was 2 and the “Log Red, contact time 14 day” value ([2]; 1000 ppm, Table 3) was 3. The “Log Red, contact time 21 day” value ([2]; 1000 ppm, Table 3) was 2, the “Log Red, contact time 28 day” value ([2]; 1000 ppm, Table 3) was 2 and the “cfu/mL, contact time 1 day” value ([2]; 1000 ppm, Table 3) was 100 cfu/mL. For the same compound, the “cfu/mL, contact time 3 day” value ([2]; 1000 ppm, Table 3) was 100 cfu/mL, the “cfu/mL, contact time 7 day” value ([2]; 1000 ppm, Table 3) was 100 cfu/mL and the “cfu/mL, contact time 14 day” value ([2]; 1000 ppm, Table 3) was 100 cfu/mL. For the same compound, the “cfu/mL, contact time 21 day” value ([2]; 1000 ppm, Table 3) was 100 cfu/mL and the “cfu/mL, contact time 28 day” value ([2]; 1000 ppm, Table 3) was 100 cfu/mL.
